# Source: PMC10180515, “Biological Evaluation of Triorganotin Derivatives as Potential Anticancer Agents” (Molecules, 2023)
# “And” between values parts separate entries of the source, which are not always exact repeats. Equal values may be shown once. Read-outs that look alike come from different tables or passages of the source.
# What was measured:
# [1] = test system: CAL-27 cells; assay: MTT assay of metabolic activity, CAL-27; assay type: cell-based, human
# [2] = test system: MCF-10A cells; assay: MTT assay of metabolic activity, MCF-10A; assay type: cell-based, human
# [3] = test system: PBMCs; assay: MTT assay of metabolic activity, PBMCs; assay type: cell-based, human
# [4] = test system: U937 cells; assay: MTT assay of metabolic activity, U937; assay type: cell-based
# [5] = test system: CAL-27 cells; assay: Trypan blue exclusion viability test, CAL-27; assay type: cell-based, human; details: CAL-27, 24 h
# [6] = test system: MCF-10A cells; assay: Trypan blue exclusion viability test, MCF-10A; assay type: cell-based, human; details: 24 h
# [7] = test system: 12 bp DNA duplex; assay: NMR interaction with 12 bp DNA duplex; assay type: binding; details: 0.2 mM duplex, 6 h incubation; cisplatin two equivalents, TBT-OCOCF3 two or five equivalents
# Description: In order to investigate the mechanisms underlying the cytotoxicity exerted by TBT-OCOF3, a first approach was to verify whether they were based on a direct interaction with DNA, similar to what was described for metal derivatives such as cisplatin. To this purpose, we investigated if TBT-OCOCF3 could bind to DNA using NMR. For TBT-OCOCF3, the 1D and 2D spectra of 12 bp DNA were acquired in the presence or absence of the compound. As a positive control for the interaction, cisplatin was assayed, which forms adducts or inter- and intra-strand crosslinks resulting in interference in the replication machinery, G2/M cell arrest, and cell death by apoptosis or necrosis. A solution containing 0.2 mM of the duplex, whose sequences are indicated in Figure 3, was annealed directly in the NMR tube. The double-helix formation was confirmed by the appearance of low-field signals belonging to the T- and G-NH groups (Figure 3a, left panel). The DNA’s aromatic signals were assigned to the different types of ^1H nuclei using a combination of ^1H-NMR and ^1H-^1H TOCSY experiments (Figure S3 in the Supplementary Materials) and chemical shift values (Figure 3a, right panel).
# [8] = phosphate buffer pH 7.4, 37 °C, nominal concentration 400 µM
# Description: For the NMR studies, the compounds were dissolved in DMSO-d6 and a phosphate buffer (50 mM, 5% D2O, pH = 7.4) containing, as an internal standard, 2,2,4,4-tetradeuterumtrimethylsilylpropionic acid (TSP). The NMR experiments were performed in D2O at 25 °C and recorded with a Bruker Avance spectrometer operating at 700 MHz for ^1H, equipped with a 5 mm inverse TXI probe, z-axis gradients, and a Sample Xpress Lite autosampler. The ^1H-NMR spectra were recorded with a spectral window of 15 ppm, 16 k complex points, and a relaxation delay of 10 s for a total of 16 transients.
# [9] = test system: CAL-27 cells, MCF-10A cells, PBMCs, and U937 cells; details: read-out: IC50 metabolic activity (MTT) in all tested cells; 24 h
# [10] = test system: CAL-27 cells; details: CAL-27, 2-NBDG, 1 h, 10 μM and 20 μM
# [11] = test system: MCF-10A cells; details: 2-NBDG, 1 h, 10 μM and 20 μM
# [12] = test system: CAL-27 cells; assay: Annexin-V/7-AAD double staining flow cytometry, CAL-27; assay type: cell-based, human; details: CAL-27, 4 h; TBT-OCOCF3 20 µM, WMN 0.5 µM; mean ± SD
# [13] = test system: U937 cells; assay type: cell-based; details: 18 h
# [14] = 24 h, ± SD, three experiments in triplicate
# [15] = 20–80 μM, even at the higher concentration tested
smiles,measurement,setting,value
"N.N.[Cl][Pt][Cl] [Cisplatin, cis-diaminedichloroplatinum (II)]",IC50,[1]; [14],139000 ± 59500 nM
same,IC50,[2]; [14],21500 ± 40 nM
same,IC50,"[3]; 24 h, ± SD, IL-2 stimulated PBMCs of healthy individuals",52500 ± 5880 nM
same,IC50,[4]; [14],38100 ± 3230 nM
same,Susceptibility of cells to treatment (viable cell number),[5]; [15],resistant
same,Susceptibility of cells to treatment (viable cell number),[6]; [15],resistant
same,Interaction with 12 bp DNA (change in NMR spectrum),[7],showed evidence of the interaction
"CCC[CH2][Sn]([Cl])([CH2]CCC)[CH2]CCC [TBT-Cl, tributyltin chloride]",Solubility,[8],61 µM
same,IC50,[1],910 ± 530 nM
same,IC50,[2],1220 ± 410 nM
same,IC50,[3],≤ 1000 nM
same,IC50,[4],420 ± 300 nM
same,Effect on number of viable cells,[5]; all of the concentrations tested (1.25 to 20 μM),greatly decreased the number of viable cells
same,Inhibition of viability,[6]; all of the tested concentrations (1.25 to 20 μM),≥ 90%
same,IC50,[9],≤ 1000 nM and ~1000 nM
"CCC[CH2][Sn]([CH2]CCC)([CH2]CCC)[O][Sn]([CH2]CCC)([CH2]CCC)[CH2]CCC [TBT-O, bis(tributyltin) oxide]",Solubility,[8],42 µM
same,IC50,[1],13200 nM
same,IC50,[2],4930 ± 2330 nM
same,IC50,[3],2960 ± 1350 nM
same,IC50,[4],1820 ± 210 nM
same,Effect on trypan-blue-negative (viable) cells recovered,[5]; 10 µM and 20 µM,complete inhibition
same,Inhibition of viability,[6]; 5 µM,90%
same,Inhibition of viability,[6]; 10 µM and 20 µM,100%
same,Glucose uptake inhibition,[10],significantly inhibited
same,Glucose uptake inhibition,[11],significantly inhibited
"COC[C@H]1OC(=O)c2coc3c2[C@@]1(C)C1=C(C3=O)[C@@H]2CCC(=O)[C@@]2(C)C[C@H]1OC(C)=O [WMN, wortmannin]",Anx+/7AAD+ cells,[12],0.78 ± 0.04%
same,Anx+/7AAD- cells,[12],6.42 ± 2.45%
same,Anx-/7AAD+ cells,[12],2.99 ± 0.02%
same,Anx-/7AAD- cells,[12],89.8 ± 4.63%
same,Effect on rapamycin-induced autophagy,"[13]; U937, wortmannin 0.5 μM cotreatment with rapamycin 0.5 μM",significantly inhibited
CO[C@H]1C[C@@H]2CC[C@@H](C)[C@@](O)(O2)C(=O)C(=O)N2CCCC[C@H]2C(=O)O[C@H]([C@H](C)C[C@@H]2CC[C@@H](O)[C@H](OC)C2)CC(=O)[C@H](C)/C=C(\C)[C@@H](O)[C@@H](OC)C(=O)[C@H](C)C[C@H](C)/C=C/C=C/C=C/1C [rapamycin],Autophagic-specific fluorescent green signal compared to control cells,"[13]; U937, 0.5 μM",significant increase
